Measurements taken from patent US20080287430A1, “Furan Compounds Useful As Ep1 Receptor Antagonists” (priority 2005, published 2008).

Biological target: T1, human EP1 receptor (Homo sapiens, UniProt P34995)
T1 construct: expressed in transfected cells; host or cells: CHO-K1
T1 sequence (P34995 1-402): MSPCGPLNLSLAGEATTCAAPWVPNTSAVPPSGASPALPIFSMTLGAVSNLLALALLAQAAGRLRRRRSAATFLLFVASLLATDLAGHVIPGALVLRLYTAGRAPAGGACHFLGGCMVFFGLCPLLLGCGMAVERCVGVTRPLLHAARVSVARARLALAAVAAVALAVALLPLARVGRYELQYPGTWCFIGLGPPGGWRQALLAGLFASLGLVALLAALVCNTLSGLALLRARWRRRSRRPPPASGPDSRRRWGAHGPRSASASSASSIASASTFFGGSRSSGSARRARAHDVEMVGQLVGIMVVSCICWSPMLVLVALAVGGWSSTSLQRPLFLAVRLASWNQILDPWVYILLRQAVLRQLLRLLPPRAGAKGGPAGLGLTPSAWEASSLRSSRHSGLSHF
Experiment: human EP1 calcium mobilisation assay
Assay type: cell-based
Conditions: human EP1, PGE2-induced calcium mobilisation in CHO-K1 cells; free bases or sodium salts; averages of a number of experiments; read-out: functional pKi value (converted)
Experimental: Briefly, the antagonist properties of compounds are assessed by their ability to inhibit the mobilisation of intracellular calcium ([Ca^2+]i) in response to activation of EP1 or EP3 receptors by the natural agonist hormone prostaglandin E2 (PGE2). Increasing concentrations of antagonist reduce the amount of calcium that a given concentration of PGE2 can mobilise. The net effect is to displace the PGE2 concentration-effect curve to higher concentrations of PGE2. The amount of calcium produced is assessed using a calcium-sensitive fluorescent dye such as Fluo-4, AM and a suitable instrument such as a Fluorimetric Imaging Plate Reader (FLIPR). Increasing amounts of [Ca^2+]i produced by receptor activation increase the amount of fluorescence produced by the dye and give rise to an increasing signal. The signal may be detected using the FLIPR instrument and the data generated may be analysed with suitable curve-fitting software.
The human EP1 or EP3 calcium mobilisation assay (hereafter referred to as ‘the calcium assay’) utilises Chinese hamster ovary-K1(CHO-K1) cells into which a stable (pCIN; BioTechniques 20 (1996): 102-110) vector containing either EP1 or EP3 cDNA has previously been transfected. Cells are cultured in suitable flasks containing culture medium such as DMEM:F-12 supplemented with 10% v/v foetal calf serum, 2 mM L-glutamine, 0.25 mg/ml geneticin, 100 μM flurbiprofen and 10 μg/ml puromycin.
For assay, cells are harvested using a proprietary reagent that dislodges cells such as Versene. Cells are re-suspended in a suitable quantity of fresh culture media for introduction into a 384-well plate. Following incubation for 24 hours at 37° C. the culture media is replaced with a medium containing Fluo-4 and the detergent pluronic acid, and a further incubation takes place. Concentrations of compounds are then added to the plate in order to construct concentration-effect curves. This may be performed on the FLIPR in order to assess the agonist properties of the compounds. Concentrations of PGE2 are then added to the plate in order to assess the antagonist properties of the compounds.
The data so generated may be analysed by means of a computerised curve-fitting routine. The concentration of compound that elicits a half-maximal inhibition of the calcium mobilisation induced by PGE2 (pIC50) may then be estimated.

`CCCOc1ccc(Cl)cc1Cc1ccc(C(=O)O)o1` [Example 1, Sodium 5-{[5-chloro-2-(propyloxy)phenyl]methyl}-2-furancarboxylate] and `COCCOc1ccc(Cl)cc1Cc1ccc(C(=O)O)o1` [Example 8, Sodium 5-[(5-chloro-2-{[2-(methyloxy)ethyl]oxy}phenyl)methyl]-2-furancarboxylate] cannot be ordered by Ki: < 1000 nM for the first, < 1000 nM for the second.

`CC(C)Oc1ccc(Cl)cc1Cc1ccc(C(=O)O)o1` [Example 2, Sodium 5-({5-chloro-2-[(1-methylethyl)oxy]phenyl}methyl)-2-furancarboxylate] and `CCC(CC)Oc1ccc(Cl)cc1Cc1ccc(C(=O)O)o1` [Example 4, Sodium 5-({5-chloro-2-[(1-ethylpropyl)oxy]phenyl}methyl)-2-furancarboxylate] cannot be ordered by Ki: < 1000 nM for the first, < 1000 nM for the second.

`Cc1cc(COc2ccc(Cl)cc2Cc2ccc(C(=O)O)o2)on1` [Example 9, Sodium 5-[(5-chloro-2-{[(3-methyl-5-isoxazolyl)methyl]oxy}phenyl)methyl]-2-furancarboxylate] and `O=C(O)c1ccc(Cc2cc(Cl)ccc2OCc2ccncc2Cl)o1` [Example 17, Sodium 5-[(5-chloro-2-{[(3-chloro-4-pyridinyl)methyl]oxy}phenyl)methyl]-2-furancarboxylate] cannot be ordered by Ki: < 1000 nM for the first, ≤ 10 nM for the second.

`CC(C)CCOc1ccc(Cl)cc1Cc1ccc(C(=O)O)o1` [Example 11, Sodium 5-({5-chloro-2-[(3-methylbutyl)oxy]phenyl}methyl)-2-furancarboxylate] and `O=C(O)c1ccc(Cc2cc(Cl)ccc2OCCc2ccccc2)o1` [Example 12, Sodium 5-({5-chloro-2-[(2-phenylethyl)oxy]phenyl}methyl)-2-furancarboxylate] cannot be ordered by Ki: < 1000 nM for the first, < 1000 nM for the second.

`Cc1cc(C(=O)O)oc1Cc1cc(Cl)ccc1OCC(C)C` [Example 14, Sodium 5-({5-chloro-2-[(2-methylpropyl)oxy]phenyl}methyl)-4-methyl-2-furancarboxylate] and `Cc1cc(C(=O)NCc2ccccc2)oc1Cc1cc(Cl)ccc1OCC(C)C` [Example 32, 5-({5-Chloro-2-[(2-methylpropyl)oxy]phenyl}methyl)-4-methyl-N-(phenylmethyl)-2-furancarboxamide] cannot be ordered by Ki: ≤ 10 nM for the first, < 1000 nM for the second.

`O=C(O)Cc1ccc(Cc2cc(Cl)ccc2OCc2ccccc2)o1` [Example 16, Sodium [5-({5-chloro-2-[(phenylmethyl)oxy]phenyl}methyl)-2-furanyl]acetate] and `O=C(O)c1ccc(Cc2cc(Cl)ccc2OCc2ccccn2)o1` [Example 26, Sodium 5-({5-chloro-2-[(2-pyridinylmethyl)oxy]phenyl}methyl)-2-furancarboxylate] cannot be ordered by Ki: ≤ 10 nM for the first, ≤ 10 nM for the second.

`O=C(O)c1ccc(Cc2cc(Cl)ccc2OCc2cc(F)c(F)c(F)c2)o1` [Example 24, Sodium 5-[(5-chloro-2-{[(3,4,5-trifluorophenyl)methyl]oxy}phenyl)methyl]-2-furancarboxylate] and `O=C(O)c1ccc(Cc2cc(Cl)ccc2OCc2cccnc2)o1` [Example 27, Sodium 5-({5-chloro-2-[(3-pyridinylmethyl)oxy]phenyl}methyl)-2-furancarboxylate] cannot be ordered by Ki: ≤ 10 nM for the first, < 1000 nM for the second.

`O=C(O)c1ccc(Cc2cc(Cl)ccc2OCc2ccncc2)o1` [Example 28, Sodium 5-({5-chloro-2-[(4-pyridinylmethyl)oxy]phenyl}methyl)-2-furancarboxylate] and `CC(C)COc1ccc(Cl)cc1Cc1ccc(C(=O)Nc2ccccc2)o1` [Example 34, 5-({5-Chloro-2-[(2-methylpropyl)oxy]phenyl}methyl)-N-phenyl-2-furancarboxamide] cannot be ordered by Ki: ≤ 10 nM for the first, < 1000 nM for the second.

`CC(C)COc1ccc(Cl)cc1Cc1ccc(NC(=O)OC(C)(C)C)o1` [Example 29, 1,1-Dimethylethyl[5-({5-chloro-2-[(2-methylpropyl)oxy]phenyl}methyl)-2-furanyl]carbamate] and `Cc1cc(NC(=O)OC(C)(C)C)oc1Cc1cc(Cl)ccc1OCC(C)C` [Example 30, 1,1-Dimethylethyl[5({5-chloro-2-[(2-methylpropyl)oxy]phenyl}methyl)-4-methyl-2-furanyl]carbamate] cannot be ordered by Ki: < 1000 nM for the first, < 1000 nM for the second.

`Cc1cc(C(=O)NCc2ccccc2)oc1Cc1cc(Cl)ccc1OCc1ccccc1` [Example 31, 5-({5-Chloro-2-[(phenylmethyl)oxy]phenyl}methyl)-4-methyl-N-(phenylmethyl)-2-furancarboxamide] and `CC(C)COc1ccc(Cl)cc1Cc1ccc(C(=O)NCc2cccc3ccccc23)o1` [Example 47, 5-({5-Chloro-2-[(2-methylpropyl)oxy]phenyl}methyl)-N-(1-naphthalenylmethyl)-2-furancarboxamide] cannot be ordered by Ki: < 1000 nM for the first, < 1000 nM for the second.

`CC(C)COc1ccc(Cl)cc1Cc1ccc(C(=O)NCc2ccc(F)cc2)o1` [Example 37] and `CC(C)COc1ccc(Cl)cc1Cc1ccc(C(=O)NCc2ccc(Cl)cc2)o1` [Example 41, 5-({5-Chloro-2-[(2-methylpropyl)oxy]phenyl}methyl)-N-[(4-chlorophenyl)methyl]-2-furancarboxamide] cannot be ordered by Ki: < 1000 nM for the first, < 1000 nM for the second.

`CC(C)COc1ccc(Cl)cc1Cc1ccc(C(=O)NCc2ccc(C(F)(F)F)cc2)o1` [Example 38, 5-({5-Chloro-2-[(2-methylpropyl)oxy]phenyl}methyl)-N-{[4-(trifluoromethyl)phenyl]methyl}-2-furancarboxamide] and `COc1ccc(CNC(=O)c2ccc(Cc3cc(Cl)ccc3OCC(C)C)o2)cc1` [Example 40, 5-({5-Chloro-2-[(2-methylpropyl)oxy]phenyl}methyl)-N-{[4-(methyloxy)phenyl]methyl}-2-furancarboxamide] cannot be ordered by Ki: < 1000 nM for the first, < 1000 nM for the second.

`CC(C)COc1ccc(Cl)cc1Cc1ccc(C(=O)NCc2ccc3c(c2)OCO3)o1` [Example 39, N-(1,3-Benzodioxol-5-ylmethyl)-5-({5-chloro-2-[(2-methylpropyl)oxy]phenyl}methyl)-2-furancarboxamide] and `CC(C)COc1ccc(Cl)cc1Cc1ccc(C(=O)NCc2ccc(C#N)cc2)o1` [Example 42, 5-({5-Chloro-2-[(2-methylpropyl)oxy]phenyl}methyl)-N-[(4-cyanophenyl)methyl]-2-furancarboxamide] cannot be ordered by Ki: < 1000 nM for the first, < 1000 nM for the second.

`CC(C)COc1ccc(Cl)cc1Cc1ccc(C(=O)NCc2c(F)cccc2F)o1` [Example 43, 5-({5-Chloro-2-[(2-methylpropyl)oxy]phenyl}methyl)-N-[(2,6-difluorophenyl)methyl]-2-furancarboxamide] and `CC(C)COc1ccc(Cl)cc1Cc1ccc(C(=O)NCc2cccc(F)c2F)o1` [Example 44, 5-({5-Chloro-2-[(2-methylpropyl)oxy]phenyl}methyl)-N-[(2,3-difluorophenyl)methyl]-2-furancarboxamide] cannot be ordered by Ki: < 1000 nM for the first, < 1000 nM for the second.

`CC(C)COc1ccc(Cl)cc1Cc1ccc(C(=O)NCc2ccc(-c3cccnc3)cc2)o1` [Example 45, 5-({5-Chloro-2-[(2-methylpropyl)oxy]phenyl}methyl)-N-{[4-(3-pyridinyl)phenyl]methyl}-2-furancarboxamide] and `CC(C)COc1ccc(Cl)cc1Cc1ccc(C(=O)NCc2ccc(C(N)=O)cc2)o1` [Example 46, N-{[4-(Aminocarbonyl)-phenyl]methyl}-5-({5-chloro-2-[(2-methylpropyl)oxy]phenyl}methyl)-2-furancarboxamide] cannot be ordered by Ki: < 1000 nM for the first, < 1000 nM for the second.
